Data published in paper PMC11280343, “Rubus urticifolius Compounds with Antioxidant Activity, and Inhibition Potential against Tyrosinase, Melanin, Hyaluronidase, Elastase, and Collagenase” (Pharmaceuticals, 2024).
Like-named read-outs stand apart in the source and are kept apart here.

Tests used:
[1] = molecular target: T1, tyrosinase in HMCB cells (Homo sapiens, UniProt P14679); test: Cellular tyrosinase assay (L-DOPA as substrate); assay type: cell-based
T1 construct: endogenous in cells; host or cells: HMCB cells
T1 sequence (P14679 19-529): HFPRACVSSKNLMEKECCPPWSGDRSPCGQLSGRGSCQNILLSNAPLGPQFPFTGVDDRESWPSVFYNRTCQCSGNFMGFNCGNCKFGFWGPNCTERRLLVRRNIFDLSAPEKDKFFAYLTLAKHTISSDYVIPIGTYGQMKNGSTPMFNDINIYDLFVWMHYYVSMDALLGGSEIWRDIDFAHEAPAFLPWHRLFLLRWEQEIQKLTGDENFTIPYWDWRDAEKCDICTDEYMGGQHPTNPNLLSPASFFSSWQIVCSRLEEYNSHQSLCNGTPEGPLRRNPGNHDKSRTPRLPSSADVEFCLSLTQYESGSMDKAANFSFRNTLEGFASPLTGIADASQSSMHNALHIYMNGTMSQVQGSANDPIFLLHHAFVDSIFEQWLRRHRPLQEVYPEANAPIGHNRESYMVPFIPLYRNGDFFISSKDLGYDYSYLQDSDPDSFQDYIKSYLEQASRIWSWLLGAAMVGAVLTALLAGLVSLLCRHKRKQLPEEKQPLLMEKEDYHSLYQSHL
Protocol: To determine the anti-tyrosinase activity of the samples (at the same concentration as in the viability assay), tyrosinase inhibition assay was used, following the protocol carried out by Apaza Ticona et al.. HMCB cells were cultured in 96-well plates (1 × 10^6 cells/well). […] Absorbance was measured at 475 nm using a microplate reader.

[2] = system: collagenase; test: Collagenase inhibitory assay; assay type: biochemical; details: for Collagenase Inhibition (%): inhibition percentage 'at an IC50', concentration not otherwise stated; for IC50: read-out: Anti-Collagenase IC50
Protocol: A fixed weight of 1 mg of azo dye-impregnated collagen was measured in the test tubes. Subsequently, 800 μL of 0.1 M Tris-HCl (pH 7) and 100 μL of the samples at the same concentrations used as in the viability assay were added to each test tube. Next, 100 μL of collagenase (200 units/mL) was immediately mixed into the mixture and the tubes were incubated at 43 °C for 1 h. After incubation, the test tubes were centrifuged at 3000 rpm for 10 min. The supernatant from each tube was transferred into 96-well plates and the absorbance of each supernatant was measured at 550 nm using a microplate reader.

[3] = system: THP-1 cell line; test: NR viability assay, THP-1; assay type: cell-based, Homo sapiens; details: 72 h
Protocol: (§1) The HEK001 (Homo sapiens cutaneous keratinocyte, CCL-2404), WS1 (Homo sapiens cutaneous fibroblast, CRL-1502), HMCB (Homo sapiens cutaneous melanoma, CRL-9607), and THP-1 (Homo sapiens peripheral blood monocyte, TIB-202) cell lines used in this study were obtained from the American Type Culture Collection (ATCC, Manassas, VA, USA). Cultivated in a Roswell Park Memorial Institute (RPMI) 1640 medium (RPMI 1640 Merck, Cat. No. R7755, New York, NY, USA) supplemented with 2 mM L-glutamine (≥99% Merck, Cat. No. 56-85-9), 10% fetal bovine serum (FBS Merck, Cat. No. TMS-016, St. Louis, MO, USA), and 10,000 units of penicillin and 10 mg streptomycin/mL (Merck, Cat. No. P4333, St. Louis, MO, USA) in culture flasks, the cells were maintained in an incubator under normoxic conditions (20–21% O2) and a humidified atmosphere (5% CO2 at 37 °C).
(§2) Mother solutions of samples (extracts, fractions, and compounds) were prepared at a concentration of […] using dimethyl sulfoxide (DMSO ≥ 99.9% Merck, Cat. No. 67-68-5, St. Louis, MO, USA) as the solvent. From these mother solutions, dilutions were prepared at concentrations ranging from 100 to 0.20 μg/mL or μM in culture medium containing 0.5% DMSO. Additionally, a negative control group consisting solely of culture medium with 0.5% DMSO was included to assess its potential cytotoxic effect on the cells.
(§3) Cell viability was evaluated using a colorimetric assay in 96-well plates, employing 3-amino-7-dimethylamino-2-methylphenazine hydrochloride salt reagent (NR, Merck, Cat. No. 553-24-2, St. Louis, MO, USA).
(§4) HEK001, WS1, HMCB, and THP-1 cell lines were cultured in 96-well plates at 37 °C with 5% CO2 until > 90% confluency was achieved (1 × 10^6 cells/well). Subsequently, the cultures were treated with sample dilutions (100–0.20 μg/mL or μM) for 72 h at 37 °C with 5% CO2 in phenol red-free RPMI. The supernatant was then discarded and the cells were washed with phosphate-buffered saline (PBS) before being incubated with […] NR (50 μg/mL; 173 μM) for 3 h at 37 °C with 5% CO2. NR labelling was performed after DMSO treatment. After incubation, the labelled sample dilutions were rapidly washed with a fixative solution composed of 1% calcium chloride (CaCl2 Merck, Cat. No. 10043-52-4, St. Louis, MO, USA) and 0.5% formaldehyde solution (≥36.0% in H2O Merck, Cat. No. 50-00-0, St. Louis, MO, USA), then diluted with 100 μL of the NR extraction solution. Finally, the plates were read at 540 nm using a microplate reader (Anthos 2020, version 2.0.5, Biochrom Ltd., Cambridge, UK).

[4] = system: WS1 cell line; test: NR viability assay, WS1; assay type: cell-based, Homo sapiens; details: WS1, NR assay, 72 h
Protocol: as §1, §2, §3, §4

[5] = system: HMCB cell line; test: NR viability assay, HMCB; assay type: cell-based, Homo sapiens; details: HMCB, NR assay, 72 h
Protocol: as §1, §2, §3, §4

[6] = system: HEK001 cell line; test: NR viability assay, HEK001; assay type: cell-based, Homo sapiens; details: HEK001, NR assay, 72 h
Protocol: as §1, §2, §3, §4

[7] = HMCB cells, L-DOPA as substrate, 12 h, read-out: Tyrosinase inhibitory activity IC50

Structure (SMILES) | IC50 [1, 7] [µM] | Collagenase Inhibition (%) [2] [%] | IC50 [2] [µM] | CC50 ([3]; human) [µM] | CC50 ([3]; THP-1, NR assay, read-out: Viability CC50) [µM] | IC50 [1] [µM] | CC50 [4] [µM] | CC50 [5] [µM] | CC50 [6] [µM]
CNC(=O)c1ccccc1NC(=O)/C=C/c1ccc(OC)c(OC)c1 [Compound 1, (E)-2-(3-(3,4-dimethoxyphenyl)acrylamido)-N-methylbenzamide] | 14.2 | 62.24 ± 1.42 | 76.6 ± 1.31 |  |  |  |  |  | 
O=C(O)c1cc(O)c2ccccc2n1 [Compound 2, 4-hydroxyquinoline-2-carboxylic acid] | 33.8 | 24.87 ± 1.34 | 152 ± 3.73 | > 100 |  |  |  |  | 
N#C/C(=C\c1ccc(O)cc1)C(=O)O [Compound 3, (E)-2-cyano-3-(4-hydroxyphenyl)acrylic acid] |  | 7.73 ± 1.21 | 187 ± 2.61 |  | > 100 | 51.5 | > 100 | 98.6 | > 100
